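In this assay, cells in 96-well plates receive the compound at five concentrations for 48 hours. Endpoints are linearly interpolated between the surrounding concentrations. TGI: total growth inhibition.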
Key:
Experiment in all cases: NCI-60 cell line screen, 48 h
MDA-MB-231 breast = test system: MDA-MB-231 breast
MDA-MB-435 = test system: MDA-MB-435
OVCAR-4 ovarian = test system: OVCAR-4 ovarian
HT29 colon = test system: HT29 colon
MALME-3M melanoma = test system: MALME-3M melanoma
UACC-257 melanoma = test system: UACC-257 melanoma
A498 renal = test system: A498 renal
K-562 leukemia = test system: K-562 leukemia
MDA-N = test system: MDA-N
T-47D breast = test system: T-47D breast
SNB-19 CNS = test system: SNB-19 CNS
HL-60(TB) leukemia = test system: HL-60(TB) leukemia
KM12 colon = test system: KM12 colon
CAKI-1 renal = test system: CAKI-1 renal
OVCAR-5 ovarian = test system: OVCAR-5 ovarian
NCI/ADR-RES ovarian = test system: NCI/ADR-RES ovarian
NCI-H460 lung = test system: NCI-H460 lung
HOP-92 NSCLC = test system: HOP-92 NSCLC
SK-OV-3 ovarian = test system: SK-OV-3 ovarian
U251 CNS = test system: U251 CNS
RXF 393 renal = test system: RXF 393 renal
EKVX NSCLC = test system: EKVX NSCLC
SW-620 colon = test system: SW-620 colon
HOP-62 NSCLC = test system: HOP-62 NSCLC
COLO 205 colon = test system: COLO 205 colon
CCRF-CEM leukemia = test system: CCRF-CEM leukemia
OVCAR-3 ovarian = test system: OVCAR-3 ovarian
SK-MEL-2 melanoma = test system: SK-MEL-2 melanoma
MCF7 breast = test system: MCF7 breast
RPMI-8226 leukemia = test system: RPMI-8226 leukemia
M14 melanoma = test system: M14 melanoma
NCI-H226 lung = test system: NCI-H226 lung
SR leukemia = test system: SR leukemia
UO-31 renal = test system: UO-31 renal
SNB-75 CNS = test system: SNB-75 CNS
ACHN renal = test system: ACHN renal
OVCAR-8 ovarian = test system: OVCAR-8 ovarian
LOX IMVI melanoma = test system: LOX IMVI melanoma
HCT-15 colon = test system: HCT-15 colon
A549 NSCLC = test system: A549 NSCLC
SK-MEL-5 melanoma = test system: SK-MEL-5 melanoma
DU-145 prostate = test system: DU-145 prostate
PC-3 prostate = test system: PC-3 prostate
TK-10 renal = test system: TK-10 renal
SF-295 CNS = test system: SF-295 CNS
MOLT-4 leukemia = test system: MOLT-4 leukemia
IGROV1 ovarian = test system: IGROV1 ovarian
UACC-62 melanoma = test system: UACC-62 melanoma
NCI-H23 lung = test system: NCI-H23 lung
SK-MEL-28 melanoma = test system: SK-MEL-28 melanoma
HCC-2998 colon = test system: HCC-2998 colon
HCT-116 colon = test system: HCT-116 colon
BT-549 breast = test system: BT-549 breast
SF-539 CNS = test system: SF-539 CNS
SN12C renal = test system: SN12C renal
SF-268 CNS = test system: SF-268 CNS
NCI-H522 lung = test system: NCI-H522 lung
786-0 renal = test system: 786-0 renal

SMILES: CCOC(=O)c1csc(NC(=O)CN2CCN(c3ccccc3)CC2)n1
- TGI (MDA-MB-231 breast): > 100 µM
- TGI (MDA-MB-435): > 100 µM
- TGI (OVCAR-4 ovarian): > 100 µM
- TGI (HT29 colon): > 100 µM
- TGI (MALME-3M melanoma): > 100 µM
- TGI (UACC-257 melanoma): > 100 µM
- TGI (A498 renal): > 100 µM
- TGI (K-562 leukemia): > 100 µM
- TGI (MDA-N): > 100 µM
- TGI (T-47D breast): > 100 µM
- TGI (SNB-19 CNS): > 100 µM
- TGI (HL-60(TB) leukemia): > 100 µM
- TGI (KM12 colon): > 100 µM
- TGI (CAKI-1 renal): > 100 µM
- TGI (OVCAR-5 ovarian): > 100 µM
- TGI (NCI/ADR-RES ovarian): > 100 µM
- TGI (NCI-H460 lung): > 100 µM
- TGI (HOP-92 NSCLC): > 100 µM
- TGI (SK-OV-3 ovarian): > 100 µM
- TGI (U251 CNS): > 100 µM
- TGI (RXF 393 renal): > 100 µM
- TGI (EKVX NSCLC): > 100 µM
- TGI (SW-620 colon): > 100 µM
- TGI (HOP-62 NSCLC): > 100 µM
- TGI (COLO 205 colon): > 100 µM
- TGI (CCRF-CEM leukemia): > 100 µM
- TGI (OVCAR-3 ovarian): > 100 µM
- TGI (SK-MEL-2 melanoma): > 100 µM
- TGI (MCF7 breast): > 100 µM
- TGI (RPMI-8226 leukemia): > 100 µM
- TGI (M14 melanoma): > 100 µM
- TGI (NCI-H226 lung): > 100 µM
- TGI (SR leukemia): > 100 µM
- TGI (UO-31 renal): > 100 µM
- TGI (SNB-75 CNS): > 100 µM
- TGI (ACHN renal): > 100 µM
- TGI (OVCAR-8 ovarian): > 100 µM
- TGI (LOX IMVI melanoma): > 100 µM
- TGI (HCT-15 colon): > 100 µM
- TGI (A549 NSCLC): > 100 µM
- TGI (SK-MEL-5 melanoma): > 100 µM
- TGI (DU-145 prostate): > 100 µM
- TGI (PC-3 prostate): > 100 µM
- TGI (TK-10 renal): > 100 µM
- TGI (SF-295 CNS): > 100 µM
- TGI (MOLT-4 leukemia): > 100 µM
- TGI (IGROV1 ovarian): > 100 µM
- TGI (UACC-62 melanoma): > 100 µM
- TGI (NCI-H23 lung): > 100 µM
- TGI (SK-MEL-28 melanoma): > 100 µM
- TGI (HCC-2998 colon): > 100 µM

SMILES: COc1cc2c(cc1OCCCCCN1C(=O)c3cccc4cccc(c34)C1=O)N=C[C@@H]1CCCN1C2=O
- TGI (MDA-MB-231 breast): > 100 µM
- TGI (MDA-MB-435): 0.306 µM
- TGI (HCT-116 colon): 3.13 µM
- TGI (OVCAR-4 ovarian): > 100 µM
- TGI (HT29 colon): 1.5 µM
- TGI (MALME-3M melanoma): 0.364 µM
- TGI (UACC-257 melanoma): 1.84 µM
- TGI (A498 renal): 1.3 µM
- TGI (K-562 leukemia): > 100 µM
- TGI (BT-549 breast): 0.855 µM
- TGI (MDA-N): 0.331 µM
- TGI (SF-539 CNS): 2.55 µM
- TGI (T-47D breast): 8.25 µM
- TGI (SNB-19 CNS): 4.15 µM
- TGI (KM12 colon): 0.391 µM
- TGI (OVCAR-5 ovarian): 15.5 µM
- TGI (NCI/ADR-RES ovarian): 0.89 µM
- TGI (NCI-H460 lung): > 100 µM
- TGI (HOP-92 NSCLC): 0.747 µM
- TGI (U251 CNS): > 100 µM
- TGI (RXF 393 renal): 0.0493 µM
- TGI (EKVX NSCLC): 1.85 µM
- TGI (SN12C renal): 9.62 µM
- TGI (CCRF-CEM leukemia): 0.0677 µM
- TGI (OVCAR-3 ovarian): 0.524 µM
- TGI (SF-268 CNS): > 100 µM
- TGI (SK-MEL-2 melanoma): 0.548 µM
- TGI (RPMI-8226 leukemia): > 26.2 µM
- TGI (M14 melanoma): 0.349 µM
- TGI (NCI-H226 lung): 0.574 µM
- TGI (UO-31 renal): 0.454 µM
- TGI (SNB-75 CNS): 1.24 µM
- TGI (NCI-H522 lung): 0.167 µM
- TGI (ACHN renal): 0.827 µM
- TGI (OVCAR-8 ovarian): 1.47 µM
- TGI (LOX IMVI melanoma): 0.785 µM
- TGI (HCT-15 colon): 4.06 µM
- TGI (A549 NSCLC): 3.3 µM
- TGI (DU-145 prostate): 6.9 µM
- TGI (TK-10 renal): 2.78 µM
- TGI (SF-295 CNS): 4.66 µM
- TGI (MOLT-4 leukemia): > 100 µM
- TGI (IGROV1 ovarian): 0.535 µM
- TGI (UACC-62 melanoma): 0.297 µM
- TGI (NCI-H23 lung): 0.458 µM
- TGI (SK-MEL-28 melanoma): 0.966 µM
- TGI (HCC-2998 colon): > 100 µM

SMILES: [N-]=[N+]=CC(=O)OC1CCOCC1
- TGI (MDA-MB-231 breast): > 100 µM
- TGI (MDA-MB-435): > 100 µM
- TGI (HCT-116 colon): > 100 µM
- TGI (OVCAR-4 ovarian): > 100 µM
- TGI (HT29 colon): > 100 µM
- TGI (MALME-3M melanoma): > 100 µM
- TGI (UACC-257 melanoma): > 100 µM
- TGI (A498 renal): > 100 µM
- TGI (K-562 leukemia): > 100 µM
- TGI (BT-549 breast): > 100 µM
- TGI (MDA-N): > 100 µM
- TGI (786-0 renal): > 100 µM
- TGI (SNB-19 CNS): > 100 µM
- TGI (HL-60(TB) leukemia): > 100 µM
- TGI (KM12 colon): > 100 µM
- TGI (CAKI-1 renal): > 100 µM
- TGI (OVCAR-5 ovarian): > 100 µM
- TGI (NCI-H460 lung): > 100 µM
- TGI (HOP-92 NSCLC): > 100 µM
- TGI (SK-OV-3 ovarian): > 100 µM
- TGI (U251 CNS): > 100 µM
- TGI (RXF 393 renal): > 100 µM
- TGI (EKVX NSCLC): > 100 µM
- TGI (SN12C renal): > 100 µM
- TGI (SW-620 colon): > 100 µM
- TGI (HOP-62 NSCLC): > 100 µM
- TGI (COLO 205 colon): > 100 µM
- TGI (CCRF-CEM leukemia): > 100 µM
- TGI (OVCAR-3 ovarian): > 100 µM
- TGI (SF-268 CNS): > 100 µM
- TGI (SK-MEL-2 melanoma): > 100 µM
- TGI (MCF7 breast): > 100 µM
- TGI (RPMI-8226 leukemia): > 100 µM
- TGI (NCI-H226 lung): > 100 µM
- TGI (SR leukemia): > 100 µM
- TGI (UO-31 renal): > 100 µM
- TGI (NCI-H522 lung): > 100 µM
- TGI (ACHN renal): > 100 µM
- TGI (LOX IMVI melanoma): > 100 µM
- TGI (HCT-15 colon): > 100 µM
- TGI (SK-MEL-5 melanoma): > 100 µM
- TGI (DU-145 prostate): > 100 µM
- TGI (PC-3 prostate): > 100 µM
- TGI (TK-10 renal): > 100 µM
- TGI (SF-295 CNS): > 100 µM
- TGI (MOLT-4 leukemia): > 100 µM
- TGI (IGROV1 ovarian): > 100 µM
- TGI (UACC-62 melanoma): > 100 µM
- TGI (NCI-H23 lung): > 100 µM
- TGI (SK-MEL-28 melanoma): > 100 µM
- TGI (HCC-2998 colon): > 100 µM
